In publication PMC10707468, “Pharmacokinetics of Novel Dopamine Transporter Inhibitor CE-123 and Modafinil with a Focus on Central Nervous System Distribution” (International Journal of Molecular Sciences, 2023):
Read-outs that look alike come from different tables or passages of the source.

Test: NeuroPK parameters by Combinatory Mapping Approach
Format: in vivo
Conditions: rat; for concentration at 4 h / Kp uu at 4 h: Sprague-Dawley, intravenous, 20 mg/kg; for concentration at 4 h: brain interstitial fluid, steady state, Equation (6), read-out: Unbound-drug concentration in brain interstitial fluid, Cu,brainISF; for Kp uu at 4 h: extent of BBB transport, Equation (4), read-out: Unbound brain-to-plasma concentration ratio, Kp,uu,brain; for Kp uu: brain slices (Vu,brain) and brain homogenate (fu,brain), Equation (5), Vu,brain·fu,brain, read-out: Unbound intracellular-to-extracellular (interstitial) concentration ratio, Kp,uu,cell; for Kp,uu at the blood–spinal cord barrier (BSCB): spinal-cord-to-plasma unbound ratio
Source text: The neuropharmacokinetic (neuroPK) parameters of the novel DAT inhibitor as well as modafinil have so been far assessed based on the total drug concentration in the plasma and the entire brain, usually at a single time point in a non-dedicated PK study. Yet, the total brain-to-plasma concentration ratio (Kp,brain) is just one of the neuroPK parameters with a limited use for characterization of the extent of BBB transport. According to the Free Drug Theory, the concentration of unbound (free) drugs, particularly at a site of action like the brain, governs the pharmacological effect(s), emphasizing the significance of unbound drug concentrations in distribution processes. To this end, the unbound brain-to-plasma concentration ratio, Kp,uu,brain, is the key neuroPK parameter to obtain for the assessment of the extent of BBB transport. With the Combinatory Mapping Approach (CMA), evaluation of the neuroPK parameters of unbound drugs can be obtained in a more high-throughput mode, which makes it useful for CNS drug discovery. The CMA employs several in vivo and in vitro methods to provide a comprehensive assessment of drug properties concerning BBB transport and intra-brain distribution. In an in vivo neuroPK study, the total concentrations of drugs in the brain and plasma are determined at the steady state, which is pivotal for assessing Kp,brain (Figure 1(A1)). In parallel, in vitro investigations involve the determination of unbound fractions of drugs in the plasma (fu,plasma) and brain tissue binding properties (fu,brain) using equilibrium dialysis and the brain slice method (Vu,brain) (Figure 1(B1,C1)). Finally, a combination of these acquired parameters enables the estimation of Kp,uu,brain and the unbound drug cell partitioning coefficient (Kp,uu,cell). Kp,uu,brain represents the ratio of brain interstitial fluid (ISF) to the plasma unbound drug concentrations at the steady state, providing a quantitative description of the net BBB drug transport. This parameter relies on three compound-specific parameters, Kp,brain, Vu,brain, and fu,plasma. […] Kp,uu,cell represents the steady-state ratio of intracellular to extracellular unbound drug concentrations, describing the drug transport across the cellular membrane.
The unbound brain-to-plasma concentration ratio, Kp,uu,brain, was calculated by using the three compound-specific parameters: Kp,brain, Vu,brain, and fu,plasma:(4) Kp,uu,brain=Kp,brain/Vu,brain·fu,plasma
The unbound intracellular-to-extracellular (interstitial) concentration ratio, Kp,uu,cell, was estimated by using the Vu,brain and fu,brain parameters:(5) Kp,uu,cell=Vu,brain·fu,brain
Due to the multiparameter character of Kp,uu,brain and Kp,uu,cell assessment (Equations (4) and (5)), the estimation of variability around the mean values was calculated using an error propagation method as described in Loryan et al. (2017).
The Kp,uu,brain values were further used to calculate the unbound drug concentration in the brain interstitial fluid Cu,brain,ISF, according to Loryan et al. (2014):(6) Cu,brain,ISF=Kp,uu,brain·Cu,plasma

Row | SMILES | concentration at 4 h | Kp uu at 4 h (brain) | Kp uu at 4 h | Kp uu | Kp,uu at the blood–spinal cord barrier (BSCB) | fold difference in Kp,uu,brain, S-CE-123 vs R-modafinil
1 | NC(=O)C[S@@+]([O-])C(c1ccccc1)c1ccccc1 [R-modafinil, reference compound] | 0.282 µM | 0.1 | 0.097 ± 0.034 | 0.85 ± 0.6 | dominating net active efflux | –
2 | [O-][S@@+](Cc1cncs1)C(c1ccccc1)c1ccccc1 [S-CE-123] | 0.386 µM | 0.5 | 0.46 ± 0.032 | 0.18 ± 0.09 | closer to unity | ca. 5 fold
